# Results from paper PMC8486872, “A rational blueprint for the design of chemically-controlled protein switches” (Nature Communications, 2021).
# “And” between values parts separate entries of the source, which are not always exact repeats. Identical values can stand only once.
# Legend:
# Type in all cases: cell-based
# [1] = test system: Gal4/UAS SEAP expression in HEK293T cells; experiment: Drug specificity of CDH-TFs; details: Suppl Fig 7b
# Description: Supplementary Figure 7: Dose-dependence and reversibility characterization of CDHs in CDH-
# a) Background signal of SEAP reporter in the absence of the CDH-TF system. HEK239T cells were
# (§1) transfected with SEAP reporter S132 and treated with 1 µM Drugs 12 hours post transfection.
# (§2) Quantification of SEAP was performed 24 hours after drug treatment. b) Drug specificity of CDH-TFs. […]
# [2] = test system: SEAP expression in HEK293T cells; experiment: Background signal of SEAP reporter and single-construct controls
# Description: Supplementary Figure 7: Dose-dependence and reversibility characterization of CDHs in CDH- […]
# as §1, §2
# Background signal of SEAP reporter in the absence of the CDH-GEMS system. HEK293T cells were transfected with pLS566 SEAP reporter plasmids and treated with drugs. Quantification of SEAP was performed 24 hours post drug treatment. f) SEAP activity upon transfecting single or paired […]
# Quantification of SEAP activity of three CDHs with DMSO (dark color), specific (light color) and unspecific drug treatment (gray). […]
# (culture medium) in panels of b, c, f and g were collected every 12 hours. Values were normalized to zero based on the SEAP expression at time 0. a, b, e, f, g) The bar charts show the mean ± s.d. of n = 3 biologically independent samples overlaid with a scatter dot plot of the original data points.
# [3] = test system: SEAP and Luciferase expression in HEK293T cells; experiment: MIMO designer cells (AIR-1/2-GEMS + CDH-3-TF); details: for Luciferase: Fig5c, turn OFF via CDH-3-TF; for AIR-1-GEMS controlled SEAP expression: Fig S13c; for AIR-2-GEMS controlled SEAP expression: Fig S13e
# From the text: We first engineered MIMO cells to respond to two drugs with distinct outputs (Fig. 5a) by co-transfecting the CDH-3-TF with either AIR-1-GEMS (Fig. 5b) or AIR-2-GEMS (Fig. 5c).
# Fig. 5 Orthogonal chemical switches enable implementation of multi-input multi-output control modes in mammalian cells. a Scheme of multi-inputs multi-outputs (MIMO) designer cells where two drugs control two different outputs. b, c Cells were co-transfected with AIR-1/2-GEMS and CDH-3-TF regulate SEAP and Luciferase expression, respectively. […] AIR-1/2-GEMS coupled with SEAP expression circuits were co-transfected with CDH-1/2-TF circuits which control the Luciferase production. Respective drug concentrations ranged from 0.001 nM to 1 µM. All values presented are mean ± s.d. of three replicates and curves were fitted by four-parameters nonlinear regression. b, c, e, f, h, i Source data are available in the source data file.
# Supplementary Figure 13: Orthogonal chemical switches enable implementation of multi-input multi-output control modes in mammalian cells. a) Dual drug toxicity tests in 293T cells. […]
# concentrations of 1 nM, 10 nM, 100 nM and 1000 nM each drug in cell culture medium. CCK8 assay was performed 24 hours after drug treatment. Each bar represents the mean of three biological replicates ± s.d, overlaid with a scatter dot plot of the original data points. b-c) Cells were co-transfected with AIR-1-GEMS and CDH-3-TF regulate SEAP and Luciferase expression, respectively. Drug concentrations ranged from 0.001 nM to 1 µM and different combinations were added depending on the protein components, Drug-1 only (b) and Drug-3 only (c). d-e) Cells were co-transfected with AIR-2-GEMS and CDH-3-TF regulate SEAP and Luciferase expression, respectively. Drug concentrations ranged from 0.001 nM to 1 µM and different combinations were added depending on the protein […]
# 1-TF and CDH-3-TF circuits. Drug-1 concentrations ranged from 0.001 nM to 1 µM (left) and 1 µM Drug-1 with serial diluted Drug-3 from 0.001 nM to 1 µM (right). g) Quantification of SEAP activity controlled by CDH-1-GEMS and CDH-3-GEMS circuits. Drug-1 concentrations ranged from 0.001 nM to 1 µM (left) and Drug-3 dilution along with 1 µM Drug-1 (right). h-i) Quantification of SEAP and Luciferase activities under Drug-1. AIR-1-GEMS coupled with SEAP expression circuits (i) and CDH-1-TF circuits which control the Luciferase production (j). j-k) Quantification of SEAP and Luciferase activities under Drug-2. AIR-2-GEMS coupled with SEAP expression circuits (k) and CDH-2-TF circuits which control the Luciferase production (l). b-k) Each data point represents the mean of n = 3 biological replicates, and the dose-dependent curve were fitted using four-parameter nonlinear regression.
# [4] = Fig5c Luciferase via CDH-3-TF, four-parameter fit
structure (smiles),measurement,setting,value
"COc1cc2c(cc1OC(C)C)[C@H](c1ccc(Cl)cc1)N(c1ccc(N(C)C[C@H]3CC[C@H](N4CCN(C)C(=O)C4)CC3)cc1)C(=O)C2 [Drug-3, NVP-CGM097]","Reporter signal, drug specificity",[1]; CDH1,58.9096 and 56.9625 and 57.522
same,"Reporter signal, drug specificity",[1]; CDH2,99.5028 and 95.5176 and 91.4654
same,"Reporter signal, drug specificity",[1]; CDH3,52.7796 and 52.4144 and 49.1641
same,Reporter background signal,"[2]; Suppl Fig 7a, TF reporter (S132) only",2.305 and 2.301 and 2.45
same,Reporter background signal,"[2]; Suppl Fig 7e, GEMS reporter (pLS566) only",5.089 and 3.395 and 2.755
same,Bottom (best-fit value),[3]; [4],2526
same,HillSlope (best-fit value),[3]; [4],-0.2874
same,Span (best-fit value),[3]; [4],8582
same,Top (best-fit value),[3]; [4],11108
same,logIC50 (best-fit value),"[3]; Fig5c Luciferase via CDH-3-TF, four-parameter fit, drug in nM",0.378
same,Luciferase,[3]; 0.001 nM,11408 and 10803 and 9477
same,Luciferase,[3]; 0.01 nM,8964 and 10094 and 8469
same,Luciferase,[3]; 0.05 nM,9839 and 9595 and 9040
same,Luciferase,[3]; 0.1 nM,9399 and 10012 and 6733
same,Luciferase,[3]; 0.5 nM,8698 and 9248 and 7194
same,Luciferase,[3]; 1 nM,7508 and 6014 and 5224
same,Luciferase,[3]; 5 nM,7040 and 7013 and 4899
same,Luciferase,[3]; 50 nM,6881 and 6483 and 4547
same,Luciferase,[3]; 100 nM,6853 and 5994 and 4849
same,Luciferase,[3]; 500 nM,3847 and 3669 and 3338
same,Luciferase,[3]; 1000 nM,2560 and 2436 and 2236
same,CDH-3-TF controlled Luciferase expression,"[3]; Fig S13c (with AIR-1-GEMS), Drug-3 0.01 nM",74322 RLU and 90639 RLU and 90152 RLU
same,CDH-3-TF controlled Luciferase expression,"[3]; Fig S13c (with AIR-1-GEMS), Drug-3 0.1 nM",79497 RLU and 97593 RLU and 89748 RLU
same,CDH-3-TF controlled Luciferase expression,"[3]; Fig S13c (with AIR-1-GEMS), Drug-3 1 nM",92895 RLU and 90324 RLU and 97096 RLU
same,CDH-3-TF controlled Luciferase expression,"[3]; Fig S13c (with AIR-1-GEMS), Drug-3 3.14 nM",89025 RLU and 81214 RLU and 83886 RLU
same,CDH-3-TF controlled Luciferase expression,"[3]; Fig S13c (with AIR-1-GEMS), Drug-3 10 nM",71915 RLU and 80976 RLU and 86610 RLU
same,CDH-3-TF controlled Luciferase expression,"[3]; Fig S13c (with AIR-1-GEMS), Drug-3 31.4 nM",73972 RLU and 79521 RLU and 71327 RLU
same,CDH-3-TF controlled Luciferase expression,"[3]; Fig S13c (with AIR-1-GEMS), Drug-3 100 nM",58208 RLU and 70422 RLU and 71065 RLU
same,CDH-3-TF controlled Luciferase expression,"[3]; Fig S13c (with AIR-1-GEMS), Drug-3 314 nM",42892 RLU and 48456 RLU and 50289 RLU
same,CDH-3-TF controlled Luciferase expression,"[3]; Fig S13c (with AIR-1-GEMS), Drug-3 1000 nM",30804 RLU and 29063 RLU and 25322 RLU
same,AIR-1-GEMS controlled SEAP expression,[3]; Drug-3 0.01 nM,2.627 U/L and 3.059 U/L and 3.456 U/L
same,AIR-1-GEMS controlled SEAP expression,[3]; Drug-3 0.1 nM,2.503 U/L and 2.294 U/L and 2.87 U/L
same,AIR-1-GEMS controlled SEAP expression,[3]; Drug-3 1 nM,2.418 U/L and 1.987 U/L and 3.339 U/L
same,AIR-1-GEMS controlled SEAP expression,[3]; Drug-3 3.14 nM,2.659 U/L and 2.285 U/L and 3.202 U/L
same,AIR-1-GEMS controlled SEAP expression,[3]; Drug-3 10 nM,2.675 U/L and 2.964 U/L and 4.021 U/L
same,AIR-1-GEMS controlled SEAP expression,[3]; Drug-3 31.4 nM,3.041 U/L and 3.191 U/L and 3.396 U/L
same,AIR-1-GEMS controlled SEAP expression,[3]; Drug-3 100 nM,2.602 U/L and 2.779 U/L and 2.696 U/L
same,AIR-1-GEMS controlled SEAP expression,[3]; Drug-3 314 nM,2.611 U/L and 3.076 U/L and 2.832 U/L
same,AIR-1-GEMS controlled SEAP expression,[3]; Drug-3 1000 nM,3.25 U/L and 2.611 U/L and 2.639 U/L
same,CDH-3-TF controlled Luciferase expression,"[3]; Fig S13e (with AIR-2-GEMS), Drug-3 0.01 nM",41565 RLU and 51927 RLU and 50033 RLU
same,CDH-3-TF controlled Luciferase expression,"[3]; Fig S13e (with AIR-2-GEMS), Drug-3 0.1 nM",58083 RLU and 52382 RLU and 52587 RLU
same,CDH-3-TF controlled Luciferase expression,"[3]; Fig S13e (with AIR-2-GEMS), Drug-3 1 nM",58208 RLU and 58951 RLU and 60752 RLU
same,CDH-3-TF controlled Luciferase expression,"[3]; Fig S13e (with AIR-2-GEMS), Drug-3 3.14 nM",50716 RLU and 61071 RLU and 59090 RLU
same,CDH-3-TF controlled Luciferase expression,"[3]; Fig S13e (with AIR-2-GEMS), Drug-3 10 nM",56023 RLU and 57202 RLU and 60529 RLU
same,CDH-3-TF controlled Luciferase expression,"[3]; Fig S13e (with AIR-2-GEMS), Drug-3 31.4 nM",53333 RLU and 47578 RLU and 50640 RLU
same,CDH-3-TF controlled Luciferase expression,"[3]; Fig S13e (with AIR-2-GEMS), Drug-3 100 nM",44259 RLU and 48370 RLU and 51647 RLU
same,CDH-3-TF controlled Luciferase expression,"[3]; Fig S13e (with AIR-2-GEMS), Drug-3 314 nM",32705 RLU and 39602 RLU and 35080 RLU
same,CDH-3-TF controlled Luciferase expression,"[3]; Fig S13e (with AIR-2-GEMS), Drug-3 1000 nM",15038 RLU and 22579 RLU and 17745 RLU
same,AIR-2-GEMS controlled SEAP expression,[3]; Drug-3 0.01 nM,23.8276 U/L and 27.0293 U/L and 24.7478 U/L
same,AIR-2-GEMS controlled SEAP expression,[3]; Drug-3 0.1 nM,31.2293 U/L and 29.7436 U/L and 28.9473 U/L
same,AIR-2-GEMS controlled SEAP expression,[3]; Drug-3 1 nM,33.4988 U/L and 33.4382 U/L and 38.599 U/L
same,AIR-2-GEMS controlled SEAP expression,[3]; Drug-3 3.14 nM,29.7735 U/L and 33.7772 U/L and 32.4262 U/L
same,AIR-2-GEMS controlled SEAP expression,[3]; Drug-3 10 nM,34.6343 U/L and 33.3124 U/L and 32.8022 U/L
same,AIR-2-GEMS controlled SEAP expression,[3]; Drug-3 31.4 nM,36.5713 U/L and 29.6375 U/L and 31.1491 U/L
same,AIR-2-GEMS controlled SEAP expression,[3]; Drug-3 100 nM,34.5656 U/L and 34.2561 U/L and 36.2322 U/L
same,AIR-2-GEMS controlled SEAP expression,[3]; Drug-3 314 nM,30.9331 U/L and 30.4872 U/L and 34.4499 U/L
same,AIR-2-GEMS controlled SEAP expression,[3]; Drug-3 1000 nM,13.1028 U/L and 12.5357 U/L and 11.75 U/L
same,IC50,"[3]; Homo sapiens, HEK-293T, Fig5c Luciferase turn OFF via CDH-3-TF, four-parameter fit, read-out: IC50 (best-fit value)",2.39 nM
